Source: patent publication US6812231B2, “Benzamidine derivative” (Ajinomoto Co., Inc., priority 1998, dated 2004)

How the values were obtained:
[1] = molecular target: T1, activated human blood coagulation factor X (Homo sapiens, UniProt P00742); experiment: Determination of activity of inhibiting the activated blood-coagulation factor X (chromogenic substrate, initial rate); assay type: biochemical; conditions: tris hydrochloride buffer pH 8.4, room temperature, absorbance 405 nm; for IC50: read-out: Activity of inhibiting activated blood coagulation factor X (pIC50) (converted)
T1 construct: purchased Enzyme Research Co
T1 sequence (P00742 235-488 limits assumed): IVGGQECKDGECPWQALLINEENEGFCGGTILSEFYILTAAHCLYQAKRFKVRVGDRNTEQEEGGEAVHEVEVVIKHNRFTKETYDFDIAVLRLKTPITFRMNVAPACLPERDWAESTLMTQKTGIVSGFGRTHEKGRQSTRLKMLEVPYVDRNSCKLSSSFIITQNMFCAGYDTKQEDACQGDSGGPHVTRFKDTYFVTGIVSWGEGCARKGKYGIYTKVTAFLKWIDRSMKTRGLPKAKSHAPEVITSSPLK
T1 sequence (P00742 41-179 partner limits assumed): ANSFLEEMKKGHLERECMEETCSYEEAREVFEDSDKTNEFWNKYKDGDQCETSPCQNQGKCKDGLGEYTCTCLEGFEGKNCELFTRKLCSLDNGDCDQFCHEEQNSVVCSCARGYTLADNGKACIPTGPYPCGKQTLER
Procedure: Determination of Activity of Inhibiting the Activated Blood-coagulation Factor X
130 μl of 100 mM tris hydrochloride buffer adjusted to pH 8.4 was added to 10 μl of an aqueous solution of a compound to be tested. Then 10 μl of a 0.5 unit/ml solution of activated human blood coagulation factor X (a product of Enzyme Research Co.) in tris hydrochloride of pH 8.4 was added to the resultant mixture. After the incubation at room temperature for 10 minutes, 50 μl of a solution of N-benzoyl-L-isoleucyl-L-glutamyl-glycyl-L-arginyl-P-nitroanilide hydrochloride (a product of Peptide Institute, Inc.) adjusted to 0.8 mM with tris hydrochloride (pH 8.4) was added thereto. The absorbance was determined and then the initial reaction rate was determined. A control was prepared in the same manner as that described above except that the solution of the compound to be tested was replaced with 10 μl of tris hydrochloride buffer adjusted to pH 8.4. The absorbance was determined with MICROPLATE READER Model 3550-UV (a product of BIO RAD) at a wave length of 405 nm at intervals of 15 seconds for 16 minutes.

human thrombin = molecular target: T2, human thrombin (Homo sapiens, UniProt P00734); experiment: Determination of thrombin-inhibiting activity (chromogenic substrate S-2238, initial rate); assay type: biochemical; conditions: tris hydrochloride buffer pH 8.4, room temperature, absorbance 405 nm; for IC50: read-out: Thrombin-inhibiting activity (pIC50) (converted)
T2 construct: solution of human thrombin (a product of SIGMA Co.); purchased SIGMA Co
Procedure: Determination of Thrombin-inhibiting Activity
130 μl of 100 mM tris hydrochloride buffer adjusted to pH 8.4 was added to 10 μl of an aqueous solution of a test compound. Then 10 μl of a solution of human thrombin (a product of SIGMA Co.) adjusted to 2 units/ml with tris hydrochloride buffer of pH 8.4 was added to the resultant mixture. After the incubation at room temperature for 10 minutes, 50 μl of a solution of D-phenylalanyl-L-pipecolyl-L-arginyl-P-nitroanilide dihydrochloride (S-2238; a product of Daiichi Kagaku Yakuhin Co.) adjusted to 0.4 mM with tris hydrochloride buffer of pH 8.4 was added thereto. The absorbance was determined and then the initial reaction rate was determined. A control was prepared in the same manner as that described above except that the solution of the compound to be tested was replaced with 10 μl of tris hydrochloride buffer adjusted to pH 8.4. The absorbance was determined with MICROPLATE READER Model 3550-UV (a product of […]) at a wave length of 405 nm at intervals of 15 seconds for 16 minutes.

Molecule | Activity of inhibiting activated blood coagulation factor X (pIC50) [1] | Thrombin-inhibiting activity (pIC50) (human thrombin) | IC50 [1] | IC50 (human thrombin)
3-[4-amidino-2-(2-((1-(1-methylpyridinium-4-yl)piperidine-4-carbonyl)amino)ethoxy)phenyl]-2-oxopropionic acid bistrifluoroacetate [Compd. of Ex. 52] | 7.1 | 4.2 | – | –
3-[4-amidino-(2R)-2-((1-(pyridine-4-yl)piperidine-4-carbonyl)pyrrolidine-2-ylmethoxy)phenyl]propionic acid bistrifluoroacetate [Compd. of Ex. 26] | 7.8 | <4.0 | – | –
CC(=N)N1CCC(Oc2ccc(C(=O)NCCOc3cc(C(=N)N)ccc3C=CC(=O)O)cc2)CC1.O=C(O)C(F)(F)F.O=C(O)C(F)(F)F [Compd. of Ex. 2, 3-[4-amidino-2-(2-(4-(1-(1-acetimidoyl)-4-piperidyloxy)benzoylamino)ethoxy)phenyl]acrylic acid bistrifluoroacetate] | – | <3.0 | – | –
CC(=N)N1CCC(Oc2ccc(C(=O)NCCOc3cc(C(=N)N)ccc3CCC(=O)O)cc2)CC1.O=C(O)C(F)(F)F.O=C(O)C(F)(F)F [Compd. of Ex. 4, 3-[4-amidino-2-(2-(4-(1-(1-acetimidoyl)-4-piperidyloxy)benzoylamino)ethoxy)phenyl]propionic acid bistrifluoroacetate] | 7.5 | <3.0 | – | –
CCOC(=O)CCc1ccc(C(=N)N)cc1OCCNC(=O)C1CCN(c2ccncc2)CC1 [Compd. of Ex. 5, ethyl 3-[4-amidino-2-(2-((1-(pyridine-4-yl)piperidine-4-carbonyl)amino)ethoxy)phenyl]propionate bistrifluoroacetate] | – | – | 63.1 nM | 6310 nM
N=C(N)c1ccc(CCC(=O)O)c(OCCNC(=O)C2CCN(c3ccncc3)CC2)c1.O=C(O)C(F)(F)F.O=C(O)C(F)(F)F [Compd. of Ex. 6] | 7.4 | <3.0 | – | –
CC(=N)N1CCC(Oc2ccc(C(=O)N[C@@H](COc3cc(C(=N)N)ccc3CCC(=O)O)CC(=O)O)cc2)CC1.O=C(O)C(F)(F)F.O=C(O)C(F)(F)F [Compd. of Ex. 10, (3R)-4-[5-amidino-2-(2-carboxyethyl)phenoxy]-3-[4-(1-(1-acetimidoyl)-4-piperidyloxy)benzoylamino]butanoic acid bistrifluoroacetate] | 7.4 | <3.0 | – | –
N=C(N)c1ccc(CCC(=O)O)c(OC[C@@H](CC(=O)O)NC(=O)C2CCN(c3ccncc3)CC2)c1 [Compd. of Ex. 13, (3R)-4-[5-amidino-2-(2-carboxyethyl)phenoxy]-3-[(1-(pyridine-4-yl)piperidine-4-carbonyl)amino]butanoic acid bistrifluoroacetate] | – | – | 25.1 nM | > 794000 nM
CC(=N)N1CCC(Oc2ccc(C(=O)NCCOc3cc(C(=N)N)ccc3O)cc2)CC1 [Compd. of Ex. 14, N-[2-(5-amidino-2-hydroxyphenoxy)ethyl]-4-(1-acetimidoyl-4-piperidyloxy)benzamide bistrifluoroacetate] | – | – | 15.8 nM | > 100000 nM
CC(=N)N1CCC(Oc2ccc(C(=O)N[C@@H](COc3cc(C(=N)N)ccc3O)CC(=O)O)cc2)CC1 [Compd. of Ex. 28, (3R)-4-(5-amidino-2-hydroxyphenoxy)-3-[4-(1-acetimidoyl-4-piperidyloxy)benzoylamino]butanoic acid bistrifluoroacetate] | – | – | 15.8 nM | > 100000 nM
N=C(N)c1ccc(O)c(OC[C@@H](CC(=O)O)NC(=O)C2CCN(c3ccncc3)CC2)c1 [Compd. of Ex. 29, (3R)-4-(5-amidino-2-hydroxyphenoxy)-3-[(1-(pyridine-4-yl)piperidine-4-carbonyl)amino]butanoic acid bistrifluoroacetate] | – | – | 12.6 nM | > 100000 nM
N=C(N)c1ccc(CO)c(OCCNC(=O)C2CCN(c3ccncc3)CC2)c1.O=C(O)C(F)(F)F.O=C(O)C(F)(F)F [Compd. of Ex. 37, N-[2-(5-amidino-2-hydroxymethylphenoxy)ethyl]-1-(1-(1-pyridine-4-yl)piperidine)carboxamide bistrifluoroacetate] | 7.3 | <4.0 | – | –
COC(=O)c1ccc(C(=N)N)cc1OCCNC(=O)c1ccc(OC2CCN(C(C)=N)CC2)cc1.O=C(O)C(F)(F)F.O=C(O)C(F)(F)F [Compd. of Ex. 38, methyl 4-amidino-2-[2-(4-[1-(1-acetimidoyl)-4-piperidyloxy]benzoylamino)ethoxy]benzoate bistrifluoroacetate] | – | 3.3 | – | –
N=C(N)c1ccc(CCCO)c(OCCNC(=O)C2CCN(c3ccncc3)CC2)c1.O=C(O)C(F)(F)F.O=C(O)C(F)(F)F [Compd. of Ex. 43, N-[2-(5-amidino-2-hydroxypropylphenoxy)ethyl]-1-(1-(1-pyridine-4-yl)piperidine)carboxamide bistrifluoroacetate] | 7.8 | <4.0 | – | –
CN1CCN=C1c1ccc(C(=O)NCCOc2cc(C(=N)N)ccc2CC(=O)C(=O)O)cc1.O=C(O)C(F)(F)F.O=C(O)C(F)(F)F [Compd. of Ex. 51] | 8.1 | 4.3 | – | –
(3R)-3-[4-amidino-2-(3-ethoxycarbonyl-2-(4-(1-(1-acetimidoyl)-4-piperidyloxy)benzoylamino)propoxy)phenyl]acrylic acid bistrifluoroacetate [Compd. of Ex. 8] | – | <3.0 | – | –
N-[2-(5-amidino-2-hydroxyphenoxy)ethyl]-1-(4-pyridyl)-4-piperidine-4-carboxamide bistrifluoroacetate [Compd. of Ex. 15] | 8 | <4.0 | – | –
ethyl (3R)-4-[5-amidino-2-(2-ethoxycarbonylethyl)phenoxy]-3-[4-(1-(1-acetimidoyl)-4-piperidyloxy)benzoylamino]butanoate bistrifluoroacetate [Compd. of Ex. 9] | – | 5.5 | – | –
